According to the supplement of paper PMC10307832:

Experiments:
Test in all cases: relative viability (nuclei count vs DMSO), 5 days (fraction); higher = more cells survive
NCI-H2085 = tested on: NCI-H2085
Method in brief: (§1)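 Cells from lung cancer lines were seeded into 1536-well plates and, one day later, dosed by pin tool. Treatments were either a single drug or a fixed dose of an anchor drug with five library-drug doses (not always all listed) in √10 steps. After 5 days, nuclei were stained in a one-step fixation (final 0.05% Triton X-100, 1% formaldehyde, 1 ug/ml Hoechst) and counted on 4× images, and relative viability is the treated-to-vehicle nuclei ratio, as the median of duplicate plates.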

LU99A = tested on: LU99A
Method in brief: as §1

COR-L 105 = tested on: COR-L 105
Method in brief: as §1

HARA = tested on: HARA
Method in brief: as §1

NCI-H2023 = tested on: NCI-H2023
Method in brief: as §1

NCI-H1944 = tested on: NCI-H1944
Method in brief: as §1

SW 900 = tested on: SW 900
Method in brief: as §1

HCC-44 = tested on: HCC-44
Method in brief: as §1

HCC-15 = tested on: HCC-15
Method in brief: as §1

NCI-H647 = tested on: NCI-H647
Method in brief: as §1

CAL-12T = tested on: CAL-12T
Method in brief: as §1

LC-2-ad = tested on: LC-2-ad
Method in brief: as §1

**Q.** Which relative viability (NCI-H2085; first compound 2.53 µM) does the source give for `C=C1C(=O)O[C@@H](CCCCCCCC)[C@@H]1C(=O)O` [C-75] + CC(=O)Nc1cccc(-n2c(=O)n(C3CC3)c(=O)c3c(Nc4ccc(I)cc4F)n(C)c(=O)c(C)c32)c1 [Trametinib] (partner 0.02 µM) here?
**A.** The relative viability was 0.559.

**Q.** And the relative viability (NCI-H2085; first compound 8 µM)?
**A.** Its relative viability is 0.521.

**Q.** And the relative viability (LU99A; first compound 0.08 µM)?
**A.** The relative viability was 0.526.

**Q.** And the relative viability (LU99A; first compound 0.253 µM)?
**A.** Its relative viability is 0.528.

**Q.** And the relative viability (LU99A; first compound 0.8 µM)?
**A.** The relative viability was 0.475.

**Q.** And the relative viability (LU99A; first compound 2.53 µM)?
**A.** The relative viability was 0.562.

**Q.** And the relative viability (LU99A; first compound 8 µM)?
**A.** The relative viability was 0.527.

**Q.** And the relative viability (COR-L 105; first compound 0.08 µM)?
**A.** Its relative viability is 0.425.

**Q.** What about the relative viability (COR-L 105; first compound 0.253 µM) of the same compound?
**A.** Its relative viability is 0.458.

**Q.** And the relative viability (COR-L 105; first compound 0.8 µM)?
**A.** Its relative viability is 0.428.

**Q.** And the relative viability (COR-L 105; first compound 2.53 µM)?
**A.** The relative viability was 0.427.

**Q.** What about the relative viability (COR-L 105; first compound 8 µM) of the same compound?
**A.** The relative viability was 0.497.

**Q.** And the relative viability (HARA; first compound 0.08 µM)?
**A.** Its relative viability is 0.662.

**Q.** And the relative viability (HARA; first compound 0.253 µM)?
**A.** Its relative viability is 0.931.

**Q.** And the relative viability (HARA; first compound 0.8 µM)?
**A.** Its relative viability is 0.766.

**Q.** What about the relative viability (HARA; first compound 2.53 µM) of the same compound?
**A.** Its relative viability is 0.587.

**Q.** And the relative viability (HARA; first compound 8 µM)?
**A.** Its relative viability is 0.646.

**Q.** And the relative viability (NCI-H2023; first compound 0.08 µM)?
**A.** Its relative viability is 0.527.

**Q.** And the relative viability (NCI-H2023; first compound 0.253 µM)?
**A.** The relative viability was 0.662.

**Q.** What about the relative viability (NCI-H2023; first compound 0.8 µM) of the same compound?
**A.** The relative viability was 0.531.

**Q.** And the relative viability (NCI-H2023; first compound 2.53 µM)?
**A.** Its relative viability is 0.209.

**Q.** What about the relative viability (NCI-H2023; first compound 8 µM) of the same compound?
**A.** Its relative viability is 0.483.

**Q.** And the relative viability (NCI-H1944; first compound 0.08 µM)?
**A.** The relative viability was 0.397.

**Q.** What about the relative viability (NCI-H1944; first compound 0.253 µM) of the same compound?
**A.** Its relative viability is 0.465.

**Q.** What about the relative viability (NCI-H1944; first compound 0.8 µM) of the same compound?
**A.** Its relative viability is 0.361.

**Q.** What about the relative viability (NCI-H1944; first compound 2.53 µM) of the same compound?
**A.** The relative viability was 0.367.

**Q.** And the relative viability (NCI-H1944; first compound 8 µM)?
**A.** The relative viability was 0.371.

**Q.** And the relative viability (SW 900; first compound 0.08 µM)?
**A.** Its relative viability is 1.01.

**Q.** What about the relative viability (SW 900; first compound 0.253 µM) of the same compound?
**A.** The relative viability was 0.936.

**Q.** And the relative viability (SW 900; first compound 0.8 µM)?
**A.** Its relative viability is 0.848.

**Q.** And the relative viability (SW 900; first compound 2.53 µM)?
**A.** The relative viability was 0.71.

**Q.** What about the relative viability (SW 900; first compound 8 µM) of the same compound?
**A.** Its relative viability is 0.829.

**Q.** And the relative viability (HCC-44; first compound 0.08 µM)?
**A.** Its relative viability is 1.03.

**Q.** And the relative viability (HCC-44; first compound 0.253 µM)?
**A.** Its relative viability is 1.14.

**Q.** What about the relative viability (HCC-44; first compound 0.8 µM) of the same compound?
**A.** Its relative viability is 0.964.

**Q.** What about the relative viability (HCC-44; first compound 2.53 µM) of the same compound?
**A.** Its relative viability is 0.991.

**Q.** What about the relative viability (HCC-44; first compound 8 µM) of the same compound?
**A.** Its relative viability is 1.09.

**Q.** And the relative viability (HCC-15; first compound 0.08 µM)?
**A.** The relative viability was 0.387.

**Q.** What about the relative viability (HCC-15; first compound 0.253 µM) of the same compound?
**A.** The relative viability was 0.366.

**Q.** What about the relative viability (HCC-15; first compound 0.8 µM) of the same compound?
**A.** Its relative viability is 0.375.

**Q.** What about the relative viability (HCC-15; first compound 2.53 µM) of the same compound?
**A.** Its relative viability is 0.33.

**Q.** And the relative viability (HCC-15; first compound 8 µM)?
**A.** Its relative viability is 0.426.

**Q.** And the relative viability (NCI-H647; first compound 0.08 µM)?
**A.** Its relative viability is 0.463.

**Q.** What about the relative viability (NCI-H647; first compound 0.253 µM) of the same compound?
**A.** Its relative viability is 0.533.

**Q.** What about the relative viability (NCI-H647; first compound 0.8 µM) of the same compound?
**A.** Its relative viability is 0.361.

**Q.** What about the relative viability (NCI-H647; first compound 2.53 µM) of the same compound?
**A.** Its relative viability is 0.429.

**Q.** And the relative viability (NCI-H647; first compound 8 µM)?
**A.** Its relative viability is 0.28.

**Q.** What about the relative viability (CAL-12T; first compound 0.08 µM) of the same compound?
**A.** Its relative viability is 0.373.

**Q.** What about the relative viability (CAL-12T; first compound 0.253 µM) of the same compound?
**A.** Its relative viability is 0.455.

**Q.** And the relative viability (CAL-12T; first compound 0.8 µM)?
**A.** Its relative viability is 0.31.

**Q.** And the relative viability (CAL-12T; first compound 2.53 µM)?
**A.** Its relative viability is 0.301.

**Q.** And the relative viability (CAL-12T; first compound 8 µM)?
**A.** Its relative viability is 0.313.

**Q.** What about the relative viability (LC-2-ad; first compound 0.08 µM) of the same compound?
**A.** Its relative viability is 0.883.

**Q.** And the relative viability (LC-2-ad; first compound 0.253 µM)?
**A.** Its relative viability is 0.954.

**Q.** And the relative viability (LC-2-ad; first compound 0.8 µM)?
**A.** Its relative viability is 0.832.

**Q.** And the relative viability (LC-2-ad; first compound 2.53 µM)?
**A.** Its relative viability is 0.861.

**Q.** And the relative viability (LC-2-ad; first compound 8 µM)?
**A.** Its relative viability is 0.926.
